Results taken from patent US8557738B2, “Nitrogen-containing heterocyclic derivative and fungicide for agricultural and horticultural use” (Nippon Soda Co., Ltd., priority 2008, dated 2013).
Read-outs that look alike come from different tables or passages of the source.

Experiments:
[1] = tested on: cucumber gray mold pathogen (Botrytis cinerea); experiment: Cucumber gray mold control test; format: in vivo; details: 96 h, read-out: control value
[2] = tested on: apple scab pathogen (Venturia inaequalis); experiment: Apple scab control test; format: in vivo; details: 336 h, read-out: control value
[3] = emulsion sprayed at 100 ppm active ingredient onto cucumber seedlings (Sagami Hanjiro), lesions on leaves after 4 days vs untreated
[4] = emulsion sprayed at 100 ppm active ingredient onto apple seedlings (Ralls Janet), lesions on leaves after 2 weeks vs untreated

Structure (SMILES)	pest or weed control at 100 ppm [1, 3] [%]	pest or weed control at 100 ppm [2, 4] [%]	melting point [°C]	pest or weed control at 100 ppm [1] [%]	pest or weed control at 100 ppm [2] [%]
CC1(C2CC2)CN=C(c2cnc3ccccc3c2)c2ccccc2O1 (stereo not drawn) [B1-70, 2-Cyclopropyl-2-methyl-5-quinolin-3-yl-2,3-dihydro-benzo[f][1,4]oxazepine]	≥ 75	≥ 75			
Cc1cccc2c1OC(C)(C)CN=C2c1cnc2c(F)cccc2c1 [B1-79, 5-(8-Fluoro-quinolin-3-yl)-2,2,9-trimethyl-2,3-dihydro-benzo[f][1,4]oxazepine]	≥ 75	≥ 75	151 to 153		
CC1(C)CN=C(c2cnc3ccccc3c2)c2cccc(Oc3ccccc3)c2O1 [B1-82, 2,2-Dimethyl-9-phenoxy-5-quinolin-3-yl-2,3-dihydro-benzo[f][1,4]oxazepine]	≥ 75	≥ 75			
CC1(C)CN2OC2(c2cnc3c(F)cccc3c2)c2ccccc2O1 (stereo not drawn) [B6-34, 8b-(8-Fluoro-quinolin-3-yl)-3,3-dimethyl-2,3-dihydro-8bH-1,4-dioxa-1a-aza-benzo[a]cyclopropa[c]cycloheptene]				≥ 75	≥ 75
CC1(C)C[N+]([O-])=C(c2cnc3c(F)cccc3c2)c2ccccc2O1 [B5-34, 5-(8-Fluoro-quinolin-3-yl)-2,2-dimethyl-2,3-dihydro-benzo[f][1,4]oxazepine 4-oxide]	≥ 75	≥ 75			
CC1(C)CN(Cc2ccccc2)C(c2cnc3c(F)cccc3c2)c2cccc(Cl)c2O1 (stereo not drawn) [B4-50, 4-Benzyl-9-chloro-5-(8-fluoro-quinolin-3-yl)-2,2-dimethyl-2,3,4,5-tetrahydro-benzo[f][1,4]oxazepine]	≥ 75		138 to 141		
CC1(C)CN=C(c2cnc3ccccc3c2)c2ccccc2O1 [B1-9, 2,2-Dimethyl-5-(3-quinolinyl)-2,3-dihydro-benzo[f][1,4]oxazepine]	≥ 75	≥ 75			
c1ccc2c(c1)OC1(CC1)CN=C2c1cnc2ccccc2c1 [B1-72, 5-Quinolin-3-yl-2,3-dihydro-benzo[f][1,4]oxazepine-2-spiro-cyclopropane]	≥ 75		102 to 104		
CC1(C)COc2ccccc2C(c2cnc3ccccc3c2)=N1 [B1-3, 3,3-Dimethyl-5-(3-quinolinyl)-2,3-dihydro-benzo[f][1,4]oxazepine]	≥ 75	≥ 75	109 to 112		
O=C1COc2ccccc2C(c2cnc3ccccc3c2)=N1 [B1-84, 5-Quinolin-3-yl-benzo[f][1,4]oxazepin-3-one]	≥ 75		169 to 170		
CC1(C)CN=C(c2cnc3ccccc3c2)c2ccccc2S1 [B2-6, 2,2-Dimethyl-5-(3-quinolinyl)-2,3-dihydro-benzo[f][1,4]thiazepine]	≥ 75	≥ 75			
